Experimental data from US10125358B2, “Methods and compounds for increasing threonyl-tRNA synthetase activity” (UNIVERSITY OF VERMONT AND STATE AGRICULTURAL COLLEGE, priority 2012, dated 2018).
“Also recorded” adds a separate entry of the source.

Assays:
HUVEC = assay: Nascent protein synthesis assay (Click-iT metabolic labeling); type: cell-based, human; conditions: HUVECs; concentrations below 100 nM
Method: Nascent Protein Synthesis Assay—
Nascent protein synthesis was measured using Invitrogen Click-iT® metabolic labeling reagents [Dieterich, D. C., et al., Nat Protoc 2, 532-40 (2007)]. HUVEC cultures were pre-incubated in methionine-free Dulbecco's Modified Eagle Medium (D-MEM) high glucose (Invitrogen, Life Technologies, Grand Island, N.Y.) supplemented with 10% dialyzed fetal bovine serum (Invitrogen) containing the control or test compounds. Cycloheximide (50 μM) was used as a positive control. After 45 minutes, 25 μM Click-iT® AHA (L-azidohomoalanine) (Invitrogen) was added and cultures were incubated for 3 h. Cells were lysed with 1% SDS in 50 mM Tris-HCl with protease and phosphatase inhibitors: 1 mM […], 20 […], and 4 […]. Extracts were sonicated and protein concentration was determined by Bradford assay. Protein samples were labeled with biotin alkyne (PEG4 carboxamide-propargyl biotin) (Invitrogen) using the Click-iT® Protein Reaction Buffer Kit (Invitrogen) according to manufacturer's instructions. Equal concentrations of protein were run on a 10% SDS-PAGE and transferred to nitrocellulose membrane, incubated with streptavidin-HRP reagent (Pierce Thermo Scientific, Rockford, Ill.) followed by reaction with ECL reagent (Pierce) and exposed on film.

SKOV-3 cells = assay: HIF-1α stabilization in hypoxia (Western blot); type: cell-based
Method: After treatments, cells were harvested into sample buffer containing: 0.2 M Tris-HCL, 4% SDS, 4% β-mercaptoethanol, 40% glycerol, 4 μM pyronin Y. Extracts were sheared through a 24-gauge syringe. Samples were separated by 10% SDS-PAGE and transferred to nitrocellulose membrane and probed with rabbit polyclonal anti-TARS (1:500; Santa Cruz Biotechnology, Dallas, Tex.) or monoclonal anti-HIF-1α (BD Transduction Laboratories, [BD Biosciences, San Jose, Calif.]) (Lounsbury, Beddow et al. 1994). Secondary antibodies were HRP-goat-anti-mouse and HRP-goat-anti-rabbit (1:5,000; Jackson Laboratories, Bar Harbor, Me.).

HUVECs [1] = assay: Cell viability by Trypan Blue exclusion; type: cell-based, human; conditions: concentrations below 100 nM
Method: Cell viability was measured by counting cells in a hemacytometer with Trypan Blue exclusion (Sigma-Aldrich, St. Louis, Mo.) according to manufacturer's instructions. Measurements were normalized to untreated cells.

TARS = target: T1, TARS (Homo sapiens, UniProt P26639); conditions: calculated; see Williams, Mirando et al. 2013; cited from earlier work
T1 sequence (P26639 1-723): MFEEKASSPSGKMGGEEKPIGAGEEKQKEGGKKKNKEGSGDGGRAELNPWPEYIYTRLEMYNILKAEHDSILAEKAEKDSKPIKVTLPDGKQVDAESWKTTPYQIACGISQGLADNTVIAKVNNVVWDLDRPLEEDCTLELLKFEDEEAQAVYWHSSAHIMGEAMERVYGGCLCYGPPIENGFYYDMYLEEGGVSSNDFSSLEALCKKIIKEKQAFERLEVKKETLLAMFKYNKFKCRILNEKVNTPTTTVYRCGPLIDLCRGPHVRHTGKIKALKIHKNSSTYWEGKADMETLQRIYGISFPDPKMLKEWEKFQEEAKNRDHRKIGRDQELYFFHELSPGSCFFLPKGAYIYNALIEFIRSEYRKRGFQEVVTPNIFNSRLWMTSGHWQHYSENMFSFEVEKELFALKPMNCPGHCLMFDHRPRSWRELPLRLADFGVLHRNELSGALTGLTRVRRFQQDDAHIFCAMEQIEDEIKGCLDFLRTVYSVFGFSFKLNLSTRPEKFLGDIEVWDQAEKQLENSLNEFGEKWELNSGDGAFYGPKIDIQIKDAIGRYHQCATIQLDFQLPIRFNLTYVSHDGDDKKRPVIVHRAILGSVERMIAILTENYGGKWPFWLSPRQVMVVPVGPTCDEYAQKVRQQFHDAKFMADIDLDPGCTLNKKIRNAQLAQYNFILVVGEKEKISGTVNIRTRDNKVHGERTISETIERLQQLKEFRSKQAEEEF

[2] = test system: von Hippel Lindau protein (VHL); assay: Co-immunoprecipitation of TARS and VHL from transfected HEK293 cells; type: binding, human; conditions: biotinylated TARS construct precipitated with streptavidin beads, HEK cells
Method: Plasmids expressing biotinylatable TARS (pTARS) and myc-tagged VHL (pVHL) were transfected into HEK293 cells, and then extracts were prepared. Biotin-TARS was precipitated using streptavidin-coupled beads. Myc-VHL was precipitated using anti-myc antibodies. Precipitates were separated by SDS-PAGE, transferred and blots probed with anti-TARS antibody or anti-myc (VHL) antibody.

HUVECs [3] = assay: VEGF secretion into culture media (ELISA); type: cell-based, human; conditions: purified recombinant TARS added to HUVEC media for 24 h
Method: ELISA and Lactate Dehydrogenase Assays—
Culture media supernatants were tested for levels of secreted TARS protein using the Threonyl tRNA Synthetase (TARS) ELISA Kit (USCN Life Science, Wuhan, Hubei, PRC) according to manufacturer's instructions. Cell membrane integrity was confirmed using the lactate dehydrogenase assay CytoTox-ONE™ Homogeneous Membrane Integrity Assay (Promega, Madison, Wis.) according to manufacturer's instructions and reported as percent cytotoxicity relative to a lysis control. Levels of secreted VEGF were measured using the Human VEGF ELISA kit (Thermo Scientific) per manufacturer's instructions.

tRNAThr = assay: Steady state aminoacylation assay; type: biochemical, E. coli or human; conditions: purified recombinant protein
Method: Steady State Aminoacylation Assay—
The aminoacylation activities of the TARS constructs were determined using modifications to established procedures (Francklyn et al 2008). Briefly, reaction mixtures consisted of 20 mM Tris-HCl pH 8.0, 100 mM KCl, 10 mM MgCl2, 1 mM dithiothreitol, 2 mM ATP, 2.5 U pyrophosphatase (Roche), 80 μM threonine, 20 μM [14C]-threonine, and 5 μM of E. coli or human tRNAThr. Reactions were initiated with the addition of 0.25-0.75 μM TARS and run at 37° C. Aliquots were taken at varying time points and spotted onto Whatmann 3MM paper filters pre-soaked in 5% trichloroacetic acid (TCA). Upon completion, the filters were washed 3 times in excess TCA, once in 95% ethanol, and dried under a heating lamp. The formation of Thr-tRNAThr was detected by scintillation counter and the activity determined by linear regression of threonyl-tRNAThr formed per active site per unit time.

von Hippel Lindau protein (VHL), sequence (P40337 54-213 limits assumed): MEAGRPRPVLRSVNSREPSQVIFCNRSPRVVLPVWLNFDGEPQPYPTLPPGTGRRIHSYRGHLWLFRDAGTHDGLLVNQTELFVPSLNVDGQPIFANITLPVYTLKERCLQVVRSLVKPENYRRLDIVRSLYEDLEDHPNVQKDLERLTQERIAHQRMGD

Which results are given for `C[C@@H]1C[C@H](C)C[C@H](C)[C@@H](O)CC(=O)O[C@H]([C@@H]2CC[C@H]2C(=O)O)C/C=C/C=C(/C#N)[C@H](O)[C@@H](C)C1` [BC194]?
nascent protein synthesis (HUVEC): unaffected; also recorded: lack of effect; HIF-1α transcription (SKOV-3 cells; SK-OV3 cells responding to hypoxia): no change in HIF-1α transcription; HIF-1α protein stabilization (SKOV-3 cells; hypoxia (2% O2), 6 h): diminished the levels of HIF-1α protein stabilization; also recorded: reduce HIF-1α stabilization; cell viability (HUVECs [1]): unaffected; also recorded: lack of effect; Ki (TARS): 4.1 nM

B1: TARS: N-terminal His6-tagged human threonyl-tRNA synthetase expressed and purified from E. coli; SEQ ID NO:2 (protein, listed as Homo sapiens)
chain: MFEEKASSPSGKMGGEEKPIGAGEEKQKEGGKKKNKEGSGDGGRAELNPWPEYIYTRLEMYNILKAEHDSILAEKAEKDSKPIKVTLPDGKQVDAESWKTTPYQIACGISQGLADNTVIAKVNNVVWDLDRPLEEDCTLELLKFEDEEAQAVYWHSSAHIMGEAMERVYGGCLCYGPPIENGFYYDMYLEEGGVSSNDFSSLEALCKKIIKEKQAFERLEVKKETLLAMFKYNKFKCRILNEKVNTPTTTVYRCGPLIDLCRGPHVRHTGKIKALKIHKNSSTYWEGKADMETLQRIYGISFPDPKMLKEWEKFQEEAKNRDHRKIGRDQELYFFHELSPGSCFFLPKGAYIYNALIEFIRSEYRKRGFQEVVTPNIFNSRLWMTSGHWQHYSENMFSFEVEKELFALKPMNCPGHCLMFDHRPRSWRELPLRLADFGVLHRNELSGALTGLTRVRRFQQDDAHIFCAMEQIEDEIKGCLDFLRTVYSVFGFSFKLNLSTRPEKFLGDIEVWDQAEKQLENSLNEFGEKWELNSGDGAFYGPKIDIQIKDAIGRYHQCATIQLDFQLPIRFNLTYVSHDGDDKKRPVIVHRAILGSVERMIAILTENYGGKWPFWLSPRQVMVVPVGPTCDEYAQKVRQQFHDAKFMADIDLDPGCTLNKKIRNAQLAQYNFILVVGEKEKISGTVNIRTRDNKVHGERTISETIERLQQLKEFRSKQAEEEF
modifications: N-terminal His6 tag
What does the source list for B1?
co-precipitation of VHL [2]: the VHL protein is co-precipitated; secretion of VEGF (HUVECs [3]): did not induce secretion of VEGF; also recorded: does not induce VEGF secretion; aminoacylation activity (tRNAThr): exhibits aminoacyl synthetase activity
